From patent US10674729B2, “Synergistic combination of 3-IODO-2-propynyl-butylcarbamate and diamine” (priority 2016, dated 2020)

What was measured:
Experiment in all cases: MIC and synergy testing in tryptic soy broth (turbidity reading)
Type in all cases: cell-based
[1] = tested on: Pseudomonas aeruginosa (DSMZ#939); details: 48 hours, 30° C., TSB
Experimental: (§1) The synergism of the biocides combination of the present invention was determined using the method described by Kull, F. C., et. al in Applied Microbiology 9:538-541 (1961). The formula to calculate the synergy index (SI) is Qa/QA+Qb/QB=SI Where • QA=concentration of compound A in ppm, acting alone produced an end point (growth/no growth) • Qa=concentration of compound A in ppm, in the mixture, which produced an end point (growth/no growth) • QB=concentration of compound B in ppm, acting alone produced an end point (growth/no growth) • Qb=concentration of compound B in ppm, in the mixture, which produced an end point (growth/no growth) […]
(§2) • 1. The test was executed with a Hamilton MLStarPlus robot using automated turbidity reading with BioTek Synergy H4 plate reader. • 2. […]
(§3) • The cultures were maintained as glycerol stocks at −80° C. in cryovials, are thawed and then 100 μl spread on MEA (malt extract agar) petri dishes. • The yeast strain plates were incubated at 28° C. for 1-2 days then harvested with buffer pH 5.0. • Based on total viable count results, the inoculum was prepared. • 7. […] Reading of the results was carried out by measuring absorbance at 600 nm for each sample at the beginning of the test (tzero) and after incubation (tendpoint). tendpoint was chosen at 48 hours for bacteria and 72 hours for yeast. […]

[2] = tested on: Staphylococcus aureus (DSMZ#799); details: 48 hours, 30° C., TSB
Experimental: as §1, §2, §3

[3] = tested on: Candida albicans (DSMZ#1386); details: 72 hours, 30° C., TSB
Experimental: as §1, §2, §3

CCCCNC(=O)OCC#CI [IPBC, 3-Iodo-2-propynyl-butylcarbamate]
MIC, single biocide [1]: 1400.0 ppm | MIC, single biocide [2]: 21.6 ppm | MIC, single biocide [3]: 6.6 ppm
